The source made the active and inactive calls.
Tests used:
Assay type in all cases: functional
[1] = target: T1, Replicative DNA helicase DnaB (Mycobacterium tuberculosis, UniProt P9WMR3); experiment: DnaB intein splicing inhibitors, dose response, biochemical, cell-free fluorescence (AID 449749)
T1 sequence (P9WMR3 whole entry): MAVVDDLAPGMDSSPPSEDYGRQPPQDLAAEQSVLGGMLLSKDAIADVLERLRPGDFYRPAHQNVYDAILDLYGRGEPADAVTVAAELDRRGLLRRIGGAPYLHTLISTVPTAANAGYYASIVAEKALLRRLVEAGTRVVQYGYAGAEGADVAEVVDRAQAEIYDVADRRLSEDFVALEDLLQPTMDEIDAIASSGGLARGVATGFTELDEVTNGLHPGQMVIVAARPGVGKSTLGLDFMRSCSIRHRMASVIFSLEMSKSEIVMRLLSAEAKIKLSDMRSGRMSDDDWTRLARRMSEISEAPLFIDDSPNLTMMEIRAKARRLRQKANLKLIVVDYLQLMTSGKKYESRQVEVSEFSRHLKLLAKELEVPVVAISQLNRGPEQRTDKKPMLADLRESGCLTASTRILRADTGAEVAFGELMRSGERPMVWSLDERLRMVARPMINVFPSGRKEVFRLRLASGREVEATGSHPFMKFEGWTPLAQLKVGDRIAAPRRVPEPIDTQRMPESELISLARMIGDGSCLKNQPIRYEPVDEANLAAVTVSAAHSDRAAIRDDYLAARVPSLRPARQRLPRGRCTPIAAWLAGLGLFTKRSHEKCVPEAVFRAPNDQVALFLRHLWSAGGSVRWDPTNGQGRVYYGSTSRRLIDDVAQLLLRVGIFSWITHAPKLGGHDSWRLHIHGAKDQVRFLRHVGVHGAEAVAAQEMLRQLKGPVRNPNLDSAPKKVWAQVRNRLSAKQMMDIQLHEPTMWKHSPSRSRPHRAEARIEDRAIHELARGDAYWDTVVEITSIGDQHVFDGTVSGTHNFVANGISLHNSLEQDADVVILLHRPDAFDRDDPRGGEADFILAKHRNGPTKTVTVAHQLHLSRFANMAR

Protein RecA = target: T2, Protein RecA (Mycobacterium tuberculosis, UniProt P9WHJ3); experiment: Fluorescence Cell-Free Homogeneous Dose Retest to Identify Inhibitors of RecA-Intein Splicing Activity. [Related pubchem assays (depositor defined):AID2097, AID2223, AID489010, AID492950]
T2 sequence (P9WHJ3 whole entry): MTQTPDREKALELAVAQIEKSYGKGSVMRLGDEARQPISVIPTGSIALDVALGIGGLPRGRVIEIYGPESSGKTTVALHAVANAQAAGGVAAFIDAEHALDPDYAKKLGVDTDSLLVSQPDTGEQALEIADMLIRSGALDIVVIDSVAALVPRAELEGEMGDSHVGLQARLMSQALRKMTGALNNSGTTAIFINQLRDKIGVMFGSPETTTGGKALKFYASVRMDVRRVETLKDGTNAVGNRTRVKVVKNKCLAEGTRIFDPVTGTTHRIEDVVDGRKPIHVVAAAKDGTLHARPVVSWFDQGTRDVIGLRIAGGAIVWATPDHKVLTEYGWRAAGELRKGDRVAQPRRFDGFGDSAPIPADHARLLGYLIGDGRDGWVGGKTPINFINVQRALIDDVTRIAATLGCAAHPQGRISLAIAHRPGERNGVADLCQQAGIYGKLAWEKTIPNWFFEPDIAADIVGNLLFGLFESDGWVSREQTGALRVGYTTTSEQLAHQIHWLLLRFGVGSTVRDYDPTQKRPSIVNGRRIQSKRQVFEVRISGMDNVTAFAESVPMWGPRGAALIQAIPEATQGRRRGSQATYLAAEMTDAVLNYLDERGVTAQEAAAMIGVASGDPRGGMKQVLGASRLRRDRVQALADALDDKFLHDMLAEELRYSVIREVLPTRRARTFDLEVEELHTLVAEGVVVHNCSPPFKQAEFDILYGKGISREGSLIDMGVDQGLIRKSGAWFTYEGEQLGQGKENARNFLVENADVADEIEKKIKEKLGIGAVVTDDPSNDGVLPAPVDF

SUMO-activating enzyme = SUMO-activating enzyme (Homo sapiens, UniProt Q9UBT2); experiment: blockers of UBC9-mediated SUMO conjugation – biochemical, AlphaScreen, SUMOylation inhibitor project, confirmation (AID 2018)
[2] = target: T3, Apoptotic protease-activating factor 1 (Homo sapiens, UniProt O14727)
T3 sequence (O14727 whole entry): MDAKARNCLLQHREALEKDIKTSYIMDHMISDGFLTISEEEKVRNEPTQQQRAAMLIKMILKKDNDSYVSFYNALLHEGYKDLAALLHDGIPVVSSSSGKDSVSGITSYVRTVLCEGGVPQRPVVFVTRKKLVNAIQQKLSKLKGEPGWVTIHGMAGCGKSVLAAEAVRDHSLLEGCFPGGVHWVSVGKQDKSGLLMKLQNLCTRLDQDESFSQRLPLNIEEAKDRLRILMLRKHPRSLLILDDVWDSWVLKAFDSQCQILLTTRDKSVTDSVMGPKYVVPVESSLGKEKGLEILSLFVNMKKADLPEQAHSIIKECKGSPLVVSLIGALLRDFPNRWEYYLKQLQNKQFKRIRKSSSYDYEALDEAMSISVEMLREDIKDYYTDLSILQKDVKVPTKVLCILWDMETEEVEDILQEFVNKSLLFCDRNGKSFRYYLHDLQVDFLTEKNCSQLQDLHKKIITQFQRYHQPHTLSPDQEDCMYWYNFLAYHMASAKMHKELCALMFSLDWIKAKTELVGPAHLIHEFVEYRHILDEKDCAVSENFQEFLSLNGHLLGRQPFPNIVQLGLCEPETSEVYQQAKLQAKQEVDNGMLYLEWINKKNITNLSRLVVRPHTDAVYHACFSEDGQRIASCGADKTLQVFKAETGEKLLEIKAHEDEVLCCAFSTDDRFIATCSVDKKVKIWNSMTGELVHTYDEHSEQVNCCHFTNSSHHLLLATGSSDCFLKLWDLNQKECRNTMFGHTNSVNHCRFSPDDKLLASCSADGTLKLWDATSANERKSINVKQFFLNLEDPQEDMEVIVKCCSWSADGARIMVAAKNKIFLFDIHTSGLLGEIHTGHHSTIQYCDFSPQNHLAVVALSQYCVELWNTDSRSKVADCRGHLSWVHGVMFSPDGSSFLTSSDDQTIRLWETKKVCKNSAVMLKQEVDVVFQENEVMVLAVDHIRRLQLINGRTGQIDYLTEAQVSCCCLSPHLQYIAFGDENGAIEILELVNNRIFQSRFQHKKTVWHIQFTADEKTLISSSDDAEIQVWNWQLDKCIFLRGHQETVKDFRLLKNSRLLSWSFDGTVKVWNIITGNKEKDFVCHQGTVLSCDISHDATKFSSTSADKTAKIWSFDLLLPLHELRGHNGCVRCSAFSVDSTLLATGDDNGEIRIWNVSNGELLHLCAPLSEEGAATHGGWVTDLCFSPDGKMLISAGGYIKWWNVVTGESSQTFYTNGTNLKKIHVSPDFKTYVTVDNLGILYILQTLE

SUMO-activating enzyme, sequence (Q9UBE0 whole entry): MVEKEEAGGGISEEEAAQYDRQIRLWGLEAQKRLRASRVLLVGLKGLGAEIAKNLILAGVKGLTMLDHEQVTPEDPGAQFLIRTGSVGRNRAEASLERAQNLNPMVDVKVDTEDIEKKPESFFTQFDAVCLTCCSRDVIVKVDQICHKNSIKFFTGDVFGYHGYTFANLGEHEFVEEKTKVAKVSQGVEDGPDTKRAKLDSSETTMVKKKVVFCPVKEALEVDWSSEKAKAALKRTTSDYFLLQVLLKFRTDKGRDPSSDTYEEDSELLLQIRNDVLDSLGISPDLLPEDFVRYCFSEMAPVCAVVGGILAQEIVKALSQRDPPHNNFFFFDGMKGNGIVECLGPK
SUMO-activating enzyme, sequence (Q9UBT2 whole entry): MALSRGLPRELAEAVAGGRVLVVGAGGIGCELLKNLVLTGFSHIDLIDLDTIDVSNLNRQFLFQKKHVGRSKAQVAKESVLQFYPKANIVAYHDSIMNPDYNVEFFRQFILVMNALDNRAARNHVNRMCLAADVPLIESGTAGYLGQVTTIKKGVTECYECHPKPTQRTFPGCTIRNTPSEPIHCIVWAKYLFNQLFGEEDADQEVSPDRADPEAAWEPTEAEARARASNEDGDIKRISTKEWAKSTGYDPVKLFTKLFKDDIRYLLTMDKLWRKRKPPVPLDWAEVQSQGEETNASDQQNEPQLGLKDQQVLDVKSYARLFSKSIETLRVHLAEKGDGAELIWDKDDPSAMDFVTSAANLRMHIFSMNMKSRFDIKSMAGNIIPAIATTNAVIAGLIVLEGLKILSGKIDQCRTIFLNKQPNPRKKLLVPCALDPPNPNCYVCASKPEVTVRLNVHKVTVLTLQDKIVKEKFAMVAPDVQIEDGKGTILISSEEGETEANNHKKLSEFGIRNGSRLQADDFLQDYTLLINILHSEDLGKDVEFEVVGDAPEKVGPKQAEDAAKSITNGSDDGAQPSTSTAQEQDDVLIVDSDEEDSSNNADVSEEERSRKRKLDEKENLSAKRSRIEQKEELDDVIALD

Compound | AC50 [1] | EC50 (Protein RecA) | IC50 (SUMO-activating enzyme) | IC50 [2]
Oc1ccc(/N=C/c2ccc(OCc3ccccc3)cc2)cc1 | > 380 µM (inactive) | > 380 µM (inactive) | – | –
Nc1c(N2CCCC2)cc(Cl)c2nonc12 | 8.9 µM (active) | 1.65 µM (active) | 2.16 µM (active) | 11 µM (active)
O=C(NNc1cc(N2CCOCC2)nc(N2CCOCC2)n1)c1ccc([N+](=O)[O-])cc1 | – | – | 6.57 µM (active) | 13.6 µM (active)

— ChEMBL document CHEMBL1201862, “PubChem BioAssay data set” (2004)
